Measurements: the NIST ThermoML archive (doi:10.1021/je060271a)
± gives the expanded uncertainty stated by the source.

Details: 323.15 K, Liquid, Vibrating tube method

CCCCCCC(=O)OCC(COC(=O)CCCCCC)(COC(=O)CCCCCC)COC(=O)CCCCCC [pentaerythritol tetraheptanoate]
Details	mass density [kg/m3]
21056 kPa	969.3 ± 1.2
21077 kPa	969.3 ± 1.2
21094 kPa	969.4 ± 1.2
21132 kPa	969.3 ± 1.2
21278 kPa	969.4 ± 1.2
21299 kPa	969.5 ± 1.2
21316 kPa	969.5 ± 1.2
21334 kPa	969.5 ± 1.2
21352 kPa	969.4 ± 1.2
21372 kPa	969.6 ± 1.2
21390 kPa	969.6 ± 1.2
21408 kPa	969.8 ± 1.2
21430 kPa	969.6 ± 1.2
21448 kPa	969.6 ± 1.2
21466 kPa	969.5 ± 1.2
21483 kPa	969.6 ± 1.2
21504 kPa	969.5 ± 1.2
21522 kPa	969.6 ± 1.2
21540 kPa	969.7 ± 1.2
21562 kPa	969.6 ± 1.2
21580 kPa	969.6 ± 1.2
21601 kPa	969.7 ± 1.2
21619 kPa	969.8 ± 1.2
21637 kPa	969.7 ± 1.2
21659 kPa	969.7 ± 1.2
21677 kPa	969.8 ± 1.2
21695 kPa	969.8 ± 1.2
21716 kPa	969.7 ± 1.2
21734 kPa	969.8 ± 1.2
21753 kPa	969.7 ± 1.2
21775 kPa	969.9 ± 1.2
21793 kPa	969.8 ± 1.2
21830 kPa	969.9 ± 1.2
21852 kPa	969.8 ± 1.2
21871 kPa	969.8 ± 1.2
21930 kPa	970 ± 1.2
21950 kPa	969.9 ± 1.2
21968 kPa	969.8 ± 1.2
21990 kPa	969.9 ± 1.2
22070 kPa	970 ± 1.2
22089 kPa	969.9 ± 1.2
22112 kPa	969.9 ± 1.2
22131 kPa	970 ± 1.2
22150 kPa	969.9 ± 1.2
22173 kPa	970 ± 1.2
22193 kPa	970 ± 1.2
22213 kPa	970 ± 1.2
22232 kPa	970 ± 1.2
22275 kPa	970.2 ± 1.2
22313 kPa	970.1 ± 1.2
22336 kPa	970.1 ± 1.2
22356 kPa	970.1 ± 1.2
22380 kPa	970.1 ± 1.2
22399 kPa	970.2 ± 1.2
22419 kPa	970.2 ± 1.2
22442 kPa	970.1 ± 1.2
22463 kPa	970.2 ± 1.2
22483 kPa	970.2 ± 1.2
22502 kPa	970.2 ± 1.2
22522 kPa	970.2 ± 1.2
22546 kPa	970.1 ± 1.2
22566 kPa	970.2 ± 1.2
22585 kPa	970.4 ± 1.2
22609 kPa	970.3 ± 1.2
22629 kPa	970.3 ± 1.2
22653 kPa	970.3 ± 1.2
22717 kPa	970.3 ± 1.2
22758 kPa	970.4 ± 1.2
22779 kPa	970.4 ± 1.2
22804 kPa	970.4 ± 1.2
22824 kPa	970.4 ± 1.2
22848 kPa	970.5 ± 1.2
22869 kPa	970.4 ± 1.2
22889 kPa	970.4 ± 1.2
22913 kPa	970.4 ± 1.2
23043 kPa	970.5 ± 1.2
23090 kPa	970.5 ± 1.2
23337 kPa	970.7 ± 1.2
23406 kPa	970.7 ± 1.2
23640 kPa	970.9 ± 1.2
23662 kPa	970.8 ± 1.2
23684 kPa	970.9 ± 1.2
23706 kPa	970.9 ± 1.2
23734 kPa	970.9 ± 1.2
23970 kPa	971.1 ± 1.2
23993 kPa	971.2 ± 1.2
24020 kPa	971.1 ± 1.2
24043 kPa	971 ± 1.2
24070 kPa	971.1 ± 1.2
24093 kPa	971.2 ± 1.2
24116 kPa	971.2 ± 1.2
24143 kPa	971.2 ± 1.2
24166 kPa	971.1 ± 1.2
24190 kPa	971.2 ± 1.2
24215 kPa	971.1 ± 1.2
24242 kPa	971.3 ± 1.2
24265 kPa	971.3 ± 1.2
24289 kPa	971.3 ± 1.2
24317 kPa	971.3 ± 1.2
24340 kPa	971.4 ± 1.2
24364 kPa	971.3 ± 1.2
24387 kPa	971.3 ± 1.2
24415 kPa	971.3 ± 1.2
24466 kPa	971.4 ± 1.2
24515 kPa	971.5 ± 1.2
24540 kPa	971.4 ± 1.2
24564 kPa	971.4 ± 1.2
24616 kPa	971.5 ± 1.2
24669 kPa	971.6 ± 1.2
24770 kPa	971.5 ± 1.2
25086 kPa	971.7 ± 1.2
25112 kPa	971.8 ± 1.2
25142 kPa	971.7 ± 1.2
25168 kPa	971.8 ± 1.2
25198 kPa	971.9 ± 1.2
25224 kPa	971.9 ± 1.2
25249 kPa	971.7 ± 1.2
25275 kPa	971.9 ± 1.2
25306 kPa	971.9 ± 1.2
25330 kPa	971.9 ± 1.2
25356 kPa	971.9 ± 1.2
25439 kPa	971.9 ± 1.2
25465 kPa	972 ± 1.2
25496 kPa	972 ± 1.2
25522 kPa	972.1 ± 1.2
25549 kPa	972 ± 1.2
25575 kPa	972 ± 1.2
25607 kPa	972.1 ± 1.2
25663 kPa	972.2 ± 1.2
25691 kPa	972.2 ± 1.2
25743 kPa	972.1 ± 1.2
25775 kPa	972.2 ± 1.2
25801 kPa	972.2 ± 1.2
26029 kPa	972.3 ± 1.2
26061 kPa	972.3 ± 1.2
26121 kPa	972.4 ± 1.2
26148 kPa	972.5 ± 1.2
26175 kPa	972.3 ± 1.2
26208 kPa	972.5 ± 1.2
26235 kPa	972.4 ± 1.2
26263 kPa	972.6 ± 1.2
26296 kPa	972.3 ± 1.2
26325 kPa	972.4 ± 1.2
26352 kPa	972.5 ± 1.2
26386 kPa	972.5 ± 1.2
26413 kPa	972.5 ± 1.2
26441 kPa	972.4 ± 1.2
26475 kPa	972.6 ± 1.2
26503 kPa	972.6 ± 1.2
26531 kPa	972.6 ± 1.2
26559 kPa	972.6 ± 1.2
26594 kPa	972.6 ± 1.2
26622 kPa	972.6 ± 1.2
26658 kPa	972.7 ± 1.2
26682 kPa	972.6 ± 1.2
26717 kPa	972.7 ± 1.2
26745 kPa	972.7 ± 1.2
26901 kPa	972.8 ± 1.2
26930 kPa	972.9 ± 1.2
26959 kPa	972.9 ± 1.2
26995 kPa	972.9 ± 1.2
27304 kPa	973.1 ± 1.2
27340 kPa	973.1 ± 1.2
27371 kPa	973 ± 1.2
27401 kPa	973.1 ± 1.2
27437 kPa	973.1 ± 1.2
27468 kPa	973.1 ± 1.2
27498 kPa	973 ± 1.2
27534 kPa	973.2 ± 1.2
27632 kPa	973.3 ± 1.2
27663 kPa	973.3 ± 1.2
27694 kPa	973.3 ± 1.2
27794 kPa	973.3 ± 1.2
27926 kPa	973.5 ± 1.2
27963 kPa	973.5 ± 1.2
27996 kPa	973.5 ± 1.2
28065 kPa	973.4 ± 1.2
28096 kPa	973.6 ± 1.2
28128 kPa	973.5 ± 1.2
28160 kPa	973.5 ± 1.2
28199 kPa	973.6 ± 1.2
28231 kPa	973.6 ± 1.2
28270 kPa	973.6 ± 1.2
28302 kPa	973.6 ± 1.2
28334 kPa	973.7 ± 1.2
28471 kPa	973.7 ± 1.2
28511 kPa	973.9 ± 1.2
28544 kPa	973.6 ± 1.2
28577 kPa	973.8 ± 1.2
28617 kPa	973.8 ± 1.2
28650 kPa	973.8 ± 1.2
28689 kPa	973.9 ± 1.2
28723 kPa	973.8 ± 1.2
28864 kPa	973.9 ± 1.2
29014 kPa	974 ± 1.2
29565 kPa	974.4 ± 1.2
29607 kPa	974.4 ± 1.2
29642 kPa	974.4 ± 1.2
29686 kPa	974.4 ± 1.2
29724 kPa	974.5 ± 1.2
29761 kPa	974.5 ± 1.2
29798 kPa	974.5 ± 1.2
29834 kPa	974.6 ± 1.2
29878 kPa	974.6 ± 1.2
29915 kPa	974.6 ± 1.2
29959 kPa	974.6 ± 1.2
29995 kPa	974.7 ± 1.2
30032 kPa	974.6 ± 1.2
30076 kPa	974.8 ± 1.2
30114 kPa	974.7 ± 1.2
30151 kPa	974.7 ± 1.2
30237 kPa	974.8 ± 1.2
30274 kPa	974.7 ± 1.2
30312 kPa	974.8 ± 1.2
30358 kPa	974.7 ± 1.2
30396 kPa	974.8 ± 1.2
30434 kPa	974.9 ± 1.2
32025 kPa	975.7 ± 1.2
32076 kPa	975.7 ± 1.2
32119 kPa	975.8 ± 1.2
32170 kPa	975.9 ± 1.2
32213 kPa	975.8 ± 1.2
32256 kPa	975.9 ± 1.2
32308 kPa	976 ± 1.2
